The source of these data is patent US11524966B1 (Valo Early Discovery, Inc., priority 2017, dated 2022).

The structures appear in SMILES notation.

The first experiment has as its target T1, USP28 (USP28-5(1-1077)-TEV-6*His; LifeSensors) (Homo sapiens, UniProt Q96RU2).
T1 construct: construct USP28 (USP28-5(1-1077)-TEV-6*His; LifeSensors); TEV cleavage site (C); 6xHis (C); purchased LifeSensors
T1 sequence (Q96RU2 1-1077): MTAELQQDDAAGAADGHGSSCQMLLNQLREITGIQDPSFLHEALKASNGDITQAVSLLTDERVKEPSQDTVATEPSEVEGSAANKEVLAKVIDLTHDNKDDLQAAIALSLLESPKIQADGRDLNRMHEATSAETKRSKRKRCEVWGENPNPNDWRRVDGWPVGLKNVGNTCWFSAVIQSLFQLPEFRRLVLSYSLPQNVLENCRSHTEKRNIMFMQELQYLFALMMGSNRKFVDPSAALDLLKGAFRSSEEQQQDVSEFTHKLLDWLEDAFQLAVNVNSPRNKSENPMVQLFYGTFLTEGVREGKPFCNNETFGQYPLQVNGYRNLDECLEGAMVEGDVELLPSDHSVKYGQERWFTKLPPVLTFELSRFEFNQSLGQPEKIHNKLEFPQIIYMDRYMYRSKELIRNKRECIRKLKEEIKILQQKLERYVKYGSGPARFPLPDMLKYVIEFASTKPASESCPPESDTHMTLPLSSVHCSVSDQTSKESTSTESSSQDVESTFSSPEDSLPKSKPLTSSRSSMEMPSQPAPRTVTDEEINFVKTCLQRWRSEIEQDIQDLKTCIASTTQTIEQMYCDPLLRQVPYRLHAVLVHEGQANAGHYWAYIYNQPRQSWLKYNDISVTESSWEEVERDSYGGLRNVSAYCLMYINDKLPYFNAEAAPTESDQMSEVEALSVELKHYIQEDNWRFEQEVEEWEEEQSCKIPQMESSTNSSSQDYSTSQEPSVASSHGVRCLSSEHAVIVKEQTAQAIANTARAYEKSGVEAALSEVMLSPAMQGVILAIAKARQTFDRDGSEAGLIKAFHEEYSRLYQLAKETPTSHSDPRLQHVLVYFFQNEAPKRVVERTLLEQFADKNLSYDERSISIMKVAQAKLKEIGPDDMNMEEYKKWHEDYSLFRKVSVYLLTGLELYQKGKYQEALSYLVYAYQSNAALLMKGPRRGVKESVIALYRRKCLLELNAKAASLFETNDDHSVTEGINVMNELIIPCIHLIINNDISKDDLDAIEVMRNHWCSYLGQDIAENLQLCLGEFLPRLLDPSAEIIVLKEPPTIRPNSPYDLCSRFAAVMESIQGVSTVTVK
The experiment can be described thus: Ubiquitin-Rhodamine 110 Assay for USP28 Activity, Example A-1(b). It is filed as biochemical. The following applies: Ub-Rh110 assay, Example A-1(b). An outline of the steps:
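Single-point screening used 10 μM compound with 90 min room-temperature incubation; follow-up dose-responses (25 μM top, 3-fold) used 75 pM USP28 1-1077 construct, 30 min compound preincubation, 25 nM Ub-Rh110, 20 min reaction, citric acid quench. Rh110 fluorescence normalised to no-enzyme and DMSO controls; IC50 from 4-parameter logistic fit.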
For the molecule `Cc1ccc2c(N)c(C(=O)N[C@H]3COc4cc(N5CCN[C@@H](C)[C@H]5C)ccc4C3)sc2n1` (single isomer, unassigned) [Example 1-7], the “USP28 A-1(b) IC50 range” value is on record as “++++ (0.001-0.05 μM)”.

Still in this experiment, the particulars now being: Ubiquitin-Rhodamine 110 assay, format Example A-1(b).
For the molecule `Cc1cnc2c(N)c(C(=O)N[C@H]3CCc4cc(N5CC6CCC(C5)N6)c(C#N)cc4C3)sc2n1` (single isomer, unassigned) [Example 14-8], the “USP28 A-1(b) IC50 range” value is “++++ (0.001-0.05 μM)”.

In the case of `Cc1cnc2c(N)c(C(=O)N[C@@H]3CCc4c(ccc(N5CC6CCC(C5)N6)c4C#N)C3)sc2n1` (single isomer, unassigned) [Example 14-5], the “USP28 A-1(b) IC50 range” value is “+++ (0.05-0.2 μM)”.

In the case of `Cc1ccc2c(N)c(C(=O)N[C@H]3CCc4cc(N5CC6CCC(C5)N6)c(C#N)cc4C3)sc2n1` (single isomer, unassigned) [Example 14-4], the “USP28 A-1(b) IC50 range” value is on record as “++++ (0.001-0.05 μM)”.

Take `Cc1ccc2c(N)c(C(=O)N[C@H]3CCc4c(ccc(N5CC6CCC(C5)N6)c4C#N)C3)sc2n1` (single isomer, unassigned) [Example 14-2]: the “USP28 A-1(b) IC50 range” value is reported as “++ (0.2-2 μM)”.

In the case of `Cc1ccc2c(N)c(C(=O)N[C@@H]3CCc4cc(N5CC6CCC(C5)N6)c(C#N)cc4C3)sc2n1` (single isomer, unassigned) [Example 14-3], the “USP28 A-1(b) IC50 range” value is given as “++ (0.2-2 μM)”.

For `Cc1cnc2c(N)c(C(=O)N[C@@H]3CCc4cc(N5CC6CCC(C5)N6)c(C#N)cc4C3)sc2n1` (single isomer, unassigned) [Example 14-7], the “USP28 A-1(b) IC50 range” value was “++ (0.2-2 μM)”.

`Cc1ccc2c(N)c(C(=O)N[C@@H]3CCc4c(ccc(N5CC6CCC(C5)N6)c4C#N)C3)sc2n1` (single isomer, unassigned) [Example 14-1]: the “USP28 A-1(b) IC50 range” value is given as “++++ (0.001-0.05 μM)”.

With `Cc1nc2sc(C(=O)N[C@@H]3CCc4cc(N5CC6CCC(C5)N6)ccc4C3)c(N)c2s1` (single isomer, unassigned) [Example 12-2], the “USP28 A-1(b) IC50 range” value was “++ (0.2-2 μM)”.

As for `Cc1nc2sc(C(=O)N[C@H]3CCc4cc(N5CCNCC5)ccc4C3)c(N)c2s1` (single isomer, unassigned) [Example 11-33], the “USP28 A-1(b) IC50 range” value was “+ (>2 μM)”.

Consider `Cc1cnc2c(N)c(C(=O)N[C@H]3CCc4c(ccc(N5CC6CCC(C5)N6)c4C#N)C3)sc2n1` (single isomer, unassigned) [Example 14-6], for which the “USP28 A-1(b) IC50 range” value was “+ (>2 μM)”.
